≈ marks a conversion by molar mass, not a printed value. Entries after “also recorded” stand apart in the source; their conditions may differ. Square brackets hold non-standard residues; d marks the D form. Peptide text beside a SMILES is read from it. N(1-naphthylmethyl)Gly = O=C(O)CNCc1cccc2ccccc12; N(4-MeBn)Gly = Cc1ccc(CNCC(=O)O)cc1; NBuGly = CCCCNCC(=O)O
Key:
[1] = test system: S. aureus virulence gene expression (agr; RNAIII, hla, spa reporters); experiment: Agar diffusion reporter assay, overall activity on the three reporters; assay type: cell-based, Staphylococcus aureus; conditions: TSA plates with RNAIII::lacZ, hla::lacZ and spa::lacZ reporters, 10 μg/well (500 μg/ml; 20 μl/well)
Procedure: The reporter assay was conducted as described by Nielsen et al. (2010) using three different lacZ transcriptional reporter strains, PC203, PC322 and SH101F[37]. Test compounds dissolved in H2O or DMSO was added to agar wells at indicated concentrations and solvent only was included as a control. Incubation until blue color appeared in plates varied from 9 h to 48 h. The ability of the peptidomimetics to influence virulence gene expression was observed based on the color change around the wells; a white halo represents downregulation of virulence gene expression, while a blue halo represents upregulation of expression, with the size of the halo being indicative of the degree of interference.

[2] = test system: 8325-4 and RN10829 WT S. aureus strains; experiment: Minimum Inhibitory Concentration (MIC); assay type: cell-based, Staphylococcus aureus; conditions: TSB, two-fold dilution series 4 to 256 μg/ml, approx. 5 × 10^5 CFU/ml, 24 hours at 37 °C; lowest concentration with no growth; values identical for 8325-4 and RN10829 WT
Procedure: Overnight cultures (24 h, 37 °C, 200 rpm in TSB) of S. aureus strains were diluted 5000X in fresh TSB and was aliquoted into 96-well microtiter plates with two-fold dilution series of the peptidomimetics ranging from 4 μg/ml to 256 μg/ml (final concentration) to reach an initial cell density of approximately 5 × 10^5 CFU/ml. DMSO was used as control and the plate was incubated for 24 hours at 37 °C. The MICs of the peptidomimetics were recorded as the lowest concentration for which no bacterial growth was observed.
Supplementary Table S2: Minimum Inhibitory Concentration (MIC) of the peptidomimetics tested on 8325-4 and RN10829 WT S. aureus strains (MIC values were identical for both strains, thus are represented here in one column).

[3] = RP-HPLC retention time (hydrophobicity); assay type: physicochemical; conditions: analytical RP-HPLC; used by the paper as a measure of hydrophobicity
Procedure: The synthesis of the peptidomimetics was performed as described by Oddo et al. (2015)[51]. According to this, a combination of Fmoc Solid Phase Peptide Synthesis (SPPS) and sub-monomer approach was applied. After the synthesis, the peptidomimetics were purified (>95%) by preparative HPLC and the purity was determined through analytical HPLC. Moreover, the MALDI-TOF-MS was used in order to verify the identity of the peptidomimetics.

CCCCN(CC(=O)N(CC(=O)NCC(N)=O)Cc1cccc2ccccc12)C(=O)[C@H](CCCCN)NC(=O)[C@H](CCCCN)NC(=O)CN(Cc1ccc(C)cc1)C(=O)CNCc1cccc2ccccc12 [G7] (H-[N(1-naphthylmethyl)Gly][N(4-MeBn)Gly]KK[NBuGly][N(1-naphthylmethyl)Gly]G-NH2)
Activity on virulence gene expression (agr modulatory activity), overall [1]: increased activity; also recorded: greatly improved agr-inhibitory activity compared to D3
MIC [2]: 64 µg/mL (≈ 64 µM)
Rt (RP-HPLC retention time) [3]: 17.5 min

Reference: paper PMC5824847, “Linear peptidomimetics as potent antagonists of Staphylococcus aureus agr quorum sensing” (Scientific Reports, 2018)
